This is an account of results in patent US8680113B2, “BMI-1 protein expression modulators” (PTC Therapeutics, Inc., priority 2008, dated 2014).

Where a name gives a salt, the structure may show the parent alone.

For data set [1], the system named is Bmi-1. The data set is described as follows: Cell Model Assay: Bmi-1 expression in HT1080. The data set is classed as cell-based, human. Conditions: HT1080 (fibrosarcoma). On the procedure: (§1) Using assay conditions known to those skilled in the art, the ability of the compounds described herein to reduce Bmi-1 expression in HT1080 (fibrosarcoma), U87-MG (glioblastoma), T98G (glioblastoma), K562 (chronic myelogenous leukemia) and KG1 (acute myelogenous leukemia) cell lines was tested (at test compound concentrations calculated from the ELISA assay data shown in Example 1) compared to puromycin as a control to provide the EC50 values shown in Table 2. The term “ND” means that data was not determined.

Data set [2] deals with Bmi-1. As to the kind of experiment: Cell Model Assay: Bmi-1 expression in U87-MG. It is filed as cell-based. Conditions: U87-MG (glioblastoma). On the procedure: as §1
In data set [3] the test system is Bmi-1. As to the kind of experiment: Cell Model Assay: Bmi-1 expression in T98G. The data set is classed as cell-based. Conditions: T98G (glioblastoma). On the procedure: as §1
Data set [4] deals with Bmi-1. The data set is described as follows: Cell Model Assay: Bmi-1 expression in K562. It is filed as cell-based. Conditions: K562 (chronic myelogenous leukemia). On the procedure: as §1
The subject of data set [5] is Bmi-1. As to the kind of experiment: Cell Model Assay: Bmi-1 expression in KG1. The data set is classed as cell-based. Conditions: KG1 (acute myelogenous leukemia). On the procedure:
as §1

The test system of data set [6] is Bmi-1. The data set is described as follows: Sandwich ELISA Assay (Bmi-1 ELISA in HT-1080 cells). It is filed as cell-based, human. The method in brief:
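HT-1080 cells (8000/well) were treated with compounds in 0.5% final DMSO for 40-48 h at 37°C and then lysed. Bmi-1 in lysates was measured by sandwich ELISA: overnight capture at 4°C on mouse monoclonal, rabbit anti-Bmi-1 detection, HRP anti-rabbit, TMB. OD450 was read with an OD570 reference against a recombinant GST-Bmi-1 standard curve (0-8000 pg/mL).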
Background: In an ELISA, binding on a coated surface is turned into a signal by an enzyme label.

Another data set concerns MCL-Jeko. As to the kind of experiment: Mantle Cell Lymphoma Assay: cytotoxicity, Jeko. Conditions: 72 hrs in culture. The data set is classed as cell-based. The text has this: (§2) MCL cell lines Jeko, Mino, and Rec-1 were provided by American Type Culture Collection: The Bioresource Center (Manassas, Va.). […] Carlsbad, Calif.) in T-75 culture flasks. Cell concentration was maintained between 2 to 3×10^5 cells/mL. Early passage cells (passages 2-4) were used for all experiments. Ficoll-Histopaque density sedimentation (Sigma Aldrich) was used for separation of debris and purification of cell lines prior to experiments. […] The cytotoxic effect of test compounds on the MCL-cell lines was assessed by measuring cell concentration and cell viability using a Beckman Coulter Vi-Cell Counter. Controls and treated cells were harvested and counted at day 3.

The next data set relates to MCL-Mino. As to the kind of experiment: Mantle Cell Lymphoma Assay: cytotoxicity, Mino. It is filed as cell-based. Conditions: 72 hrs in culture.
Source text: as §2

A further data set has as its system MCL-Rec1. As to the kind of experiment: Mantle Cell Lymphoma Assay: cytotoxicity, Rec-1. The data set is classed as cell-based. Conditions: 72 hrs in culture.
Source text: as §2

The subject of a further data set is MM cell line. As to the kind of experiment: Multiple Myeloma Assay. Conditions: 72 hrs in culture. It is filed as cell-based.
In data set [7] the test system is Jeko, Mino and Rec-1 cells. As to the kind of experiment: cells. It is filed as cell-based. Conditions: 72 h, read-out: decrease in cell viability.

A word on the melting point: it is the temperature of the solid-liquid transition. With `COc1cc(Cl)c(Nc2nc(-c3c(C)nc4ncccn34)cs2)c(Cl)c1` (as salt: HBr) [Cpd 19, N-(2,6-dichloro-4-methoxyphenyl)-4-(2-methylimidazo[1,2-a]pyrimidin-3-yl)thiazol-2-amine], the melting point was in the range of 232 to 240 °C.
As a reminder, the EC50 is the concentration giving half of the maximal effect. High values mean weaker potency, low ones greater potency. For the compound `COc1ccc(C[C@H](N)C(=O)N[C@H]2[C@@H](O)[C@H](n3cnc4c(N(C)C)ncnc43)O[C@@H]2CO)cc1` [Control, puromycin, reference compound], the EC50 in the data set with Bmi-1 [1] was 450 nM; with Bmi-1 [2] it was 420 nM; with Bmi-1 [3], 230 nM; in the data set with Bmi-1 [4] it was 490 nM; in the data set on Bmi-1 [5], 1100 nM.
One may read the IC50 as the concentration at which inhibition is half-maximal. Read a high IC50 as weaker potency in that assay. `Cc1nc2ncccn2c1-c1csc(Nc2ccc(N(C)C)cc2)n1` [Cpd 12, N,N-dimethyl-N′-(4-(2-methylimidazo[1,2-a]pyrimidin-3-yl)thiazol-2-yl)benzene-1,4-diamine] showed a half-inhibitory concentration (IC50) in the data set with Bmi-1 [6] of less than 500 nM. In addition, the EC50 is 39 nM with Bmi-1 [1]; 110 nM in the data set on Bmi-1 [2]; less than 4 nM with Bmi-1 [3]; 10 nM in the data set on Bmi-1 [4]; 216 nM in the data set with Bmi-1 [5].
As for `COc1cc(C)c(Nc2nc(-c3cnc4ccc(Cl)cn34)cs2)c(C)c1` [Cpd 27, 4-(6-chloroimidazo[1,2-a]pyridine-3-yl)-N-(4-methoxy-2,6-dimethylphenyl)thiazol-2-amine], in the data set on Bmi-1 [6], the concentration for half-maximal inhibition (IC50) was less than 500 nM. Besides, the EC50 in the data set on Bmi-1 [1] worked out at 410 nM; in the data set on Bmi-1 [2], 1200 nM; in the data set on Bmi-1 [3], 91 nM; with Bmi-1 [4] it was 55 nM; in the data set on Bmi-1 [5], 128 nM. Also, the “Cell Concentration, MCL-Jeko” value is given as 1.98 ± 0.03 ×10^6 in the data set on MCL-Jeko (dose 0.004 μM); 1.99 ± 0.02 ×10^6 in the data set with MCL-Jeko (dose 0.037 μM); 1.96 ± 0.05 ×10^6 with MCL-Jeko (dose 0.11 μM); 1.77 ± 0.02 ×10^6 in the data set with MCL-Jeko (dose 0.33 μM); 1.46 ± 0.02 ×10^6 in the data set with MCL-Jeko (dose 1 μM); 0.34 ± 0.04 ×10^6 in the data set on MCL-Jeko (dose 3 μM). Besides, the “Cell Concentration, MCL-Mino” value with MCL-Mino (dose 0.004 μM) is on record as 0.62 ± 0.02 ×10^6; in the data set with MCL-Mino (dose 0.037 μM) it was 0.64 ± 0.01 ×10^6; in the data set on MCL-Mino (dose 0.11 μM), 0.59 ± 0.03 ×10^6; in the data set with MCL-Mino (dose 0.33 μM) it was 0.57 ± 0.01 ×10^6; in the data set on MCL-Mino (dose 1 μM), 0.41 ± 0.00 ×10^6; in the data set with MCL-Mino (dose 3 μM), 0.09 ± 0.00 ×10^6. Besides, the “Cell Concentration, MCL-Rec1” value in the data set with MCL-Rec1 (dose 0.004 μM) was 1.66 ± 0.06 ×10^6; with MCL-Rec1 (dose 0.037 μM) it was 1.65 ± 0.03 ×10^6; with MCL-Rec1 (dose 0.11 μM), 1.63 ± 0.04 ×10^6; in the data set with MCL-Rec1 (dose 0.33 μM), 1.53 ± 0.01 ×10^6; in the data set with MCL-Rec1 (dose 1 μM), 1.24 ± 0.03 ×10^6; with MCL-Rec1 (dose 3 μM), 0.09 ± 0.01 ×10^6. Also, the “Cell Concentration, MM cell line” value is given as 1.46 ± 0.01 ×10^6 with MM cell line (dose 0.004 μM); 1.36 ± 0.07 ×10^6 in the data set with MM cell line (dose 0.037 μM); 1.30 ± 0.01 ×10^6 with MM cell line (dose 0.11 μM); 0.80 ± 0.01 ×10^6 in the data set on MM cell line (dose 0.33 μM); 0.17 ± 0.00 ×10^6 with MM cell line (dose 1 μM); 0.2 ± 0.05 ×10^6 in the data set on MM cell line (dose 3 μM).
By viability is commonly meant the share of living cells, or the viability signal relative to a control. Consider `Cc1nc2ncccn2c1-c1csc(Nc2ccc(Cl)cc2)n1` [Cpd 49, N-(4-chlorophenyl)-4-(2-methylimidazo[1,2-a]pyrimidin-3-yl)-1,3-thiazol-2-amine], for which the 50% inhibitory concentration (IC50) in the data set with Bmi-1 [6] was less than 500 nM. For the same compound, the “Cell Concentration, MCL-Jeko” value with MCL-Jeko (dose 0.004 μM) is on record as 1.83 ± 0.01 ×10^6; in the data set on MCL-Jeko (dose 0.037 μM) it was 1.94 ± 0.06 ×10^6; in the data set on MCL-Jeko (dose 0.11 μM), 2.06 ± 0.04 ×10^6; in the data set with MCL-Jeko (dose 0.33 μM), 1.82 ± 0.06 ×10^6; in the data set with MCL-Jeko (dose 1 μM), 0.66 ± 0.05 ×10^6; in the data set with MCL-Jeko (dose 3 μM) it was 0.06 ± 0.01 ×10^6. Besides, the viability at 0.004 µM with MCL-Jeko (dose 0.004 μM, read-out: Cell Viability, MCL-Jeko) was determined as 74.33 ± 0.53%; in the data set with MCL-Mino (Homo sapiens, MINO, dose 0.004 μM, read-out: Cell Viability, MCL-Mino) it was 94.7 ± 0.44%; in the data set with MCL-Rec1 (Homo sapiens, Rec1, dose 0.004 μM, read-out: Cell Viability, MCL-Rec1), 89.2 ± 0.33%; with MM cell line (dose 0.004 μM) it was 89.63 ± 0.35%. Moreover, the viability at 0.037 µM with MCL-Jeko (dose 0.037 μM, read-out: Cell Viability, MCL-Jeko) turned out to be 74.7 ± 1.08%; in the data set with MCL-Mino (Homo sapiens, MINO, dose 0.037 μM, read-out: Cell Viability, MCL-Mino) it was 91.2 ± 1%; in the data set on MCL-Rec1 (Homo sapiens, Rec1, dose 0.037 μM, read-out: Cell Viability, MCL-Rec1), 89.07 ± 0.33%; with MM cell line (dose 0.037 μM) it was 89.53 ± 0.46%. In addition, the viability at 0.11 µM is 78.73 ± 0.33% in the data set on MCL-Jeko (dose 0.11 μM, read-out: Cell Viability, MCL-Jeko); 75.6 ± 1.49% in the data set with MCL-Mino (Homo sapiens, MINO, dose 0.11 μM, read-out: Cell Viability, MCL-Mino); 90.07 ± 0.1% with MCL-Rec1 (Homo sapiens, Rec1, dose 0.11 μM, read-out: Cell Viability, MCL-Rec1); 84.7 ± 0.88% in the data set with MM cell line (dose 0.11 μM). For the same compound, the viability at 0.33 µM stood at 73.2 ± 0.58% in the data set on MCL-Jeko (dose 0.33 μM, read-out: Cell Viability, MCL-Jeko); 34.4 ± 2.46% in the data set with MCL-Mino (Homo sapiens, MINO, dose 0.33 μM, read-out: Cell Viability, MCL-Mino); 81.93 ± 0.03% in the data set with MCL-Rec1 (Homo sapiens, Rec1, dose 0.33 μM, read-out: Cell Viability, MCL-Rec1); 69.6 ± 0.85% with MM cell line (dose 0.33 μM). Besides, the viability at 1 µM in the data set on MCL-Jeko (dose 1 μM, read-out: Cell Viability, MCL-Jeko) is 39.6 ± 2.28%; in the data set on MCL-Mino (Homo sapiens, MINO, dose 1 μM, read-out: Cell Viability, MCL-Mino), 15.3 ± 1.13%; with MCL-Rec1 (Homo sapiens, Rec1, dose 1 μM, read-out: Cell Viability, MCL-Rec1), 51 ± 1.83%; with MM cell line (dose 1 μM), 55.5 ± 2.4%. For the same compound, the viability at 3 µM with MCL-Jeko (dose 3 μM, read-out: Cell Viability, MCL-Jeko) is 5.4 ± 0.61%; in the data set on MCL-Mino (Homo sapiens, MINO, dose 3 μM, read-out: Cell Viability, MCL-Mino), 12.7 ± 1.47%; in the data set with MCL-Rec1 (Homo sapiens, Rec1, dose 3 μM, read-out: Cell Viability, MCL-Rec1) it was 12 ± 0.95%; in the data set with MM cell line (dose 3 μM) it was 55.5 ± 1.79%. The “Cell Concentration, MCL-Mino” value is listed as 1.87 ± 0.04 ×10^6 in the data set on MCL-Mino (dose 0.004 μM); 1.72 ± 0.09 ×10^6 with MCL-Mino (dose 0.037 μM); 0.97 ± 0.06 ×10^6 in the data set on MCL-Mino (dose 0.11 μM); 0.15 ± 0.06 ×10^6 with MCL-Mino (dose 0.33 μM); 0.07 ± 0.01 ×10^6 in the data set with MCL-Mino (dose 1 μM); 0.06 ± 0.01 ×10^6 in the data set on MCL-Mino (dose 3 μM). The “Cell Concentration, MCL-Rec1” value is recorded as 0.83 ± 0.01 ×10^6 in the data set with MCL-Rec1 (dose 0.004 μM); 0.87 ± 0.01 ×10^6 in the data set with MCL-Rec1 (dose 0.037 μM); 0.84 ± 0.01 ×10^6 with MCL-Rec1 (dose 0.11 μM); 0.58 ± 0.00 ×10^6 with MCL-Rec1 (dose 0.33 μM); 0.21 ± 0.01 ×10^6 with MCL-Rec1 (dose 1 μM); 0.04 ± 0.00 ×10^6 in the data set with MCL-Rec1 (dose 3 μM). Also, the “Cell Concentration, MM cell line” value was 1.22 ± 0.05 ×10^6 in the data set on MM cell line (dose 0.004 μM); 1.09 ± 0.05 ×10^6 in the data set on MM cell line (dose 0.037 μM); 0.85 ± 0.05 ×10^6 in the data set on MM cell line (dose 0.11 μM); 0.38 ± 0.01 ×10^6 with MM cell line (dose 0.33 μM); 0.21 ± 0.01 ×10^6 in the data set on MM cell line (dose 1 μM); 0.22 ± 0.01 ×10^6 with MM cell line (dose 3 μM). Besides, the cytotoxicity at 0.08 µM in data set [7] was in the range of 70 to 90%.
